Reference: ChEMBL document CHEMBL5055668 (J Med Chem, 2021)
Activity calls are given as the source filed them. No cut-off for these calls is given here.

Experiments:
MC-38 [1] = assay: Induction of conversion of M2-macrophages to the M1 phenotype in CM of MC38 cells treated C57BL/6 mouse BMDM cells transfected with CSF1R shRNA2 assessed as decrease in Tnf mRNA expression measured after 24 hrs by qPCR analysis; type: functional, cell-based
[2] = molecular target: T1, Macrophage colony-stimulating factor 1 receptor (Mus musculus) (UniProt P09581); assay: Binding affinity to CSF-1R in C57BL/6 mouse BMDM cells assessed as increase in melting temperature at 100 nM after 1 hr by CETSA; type: cell-based
T1 sequence (whole entry): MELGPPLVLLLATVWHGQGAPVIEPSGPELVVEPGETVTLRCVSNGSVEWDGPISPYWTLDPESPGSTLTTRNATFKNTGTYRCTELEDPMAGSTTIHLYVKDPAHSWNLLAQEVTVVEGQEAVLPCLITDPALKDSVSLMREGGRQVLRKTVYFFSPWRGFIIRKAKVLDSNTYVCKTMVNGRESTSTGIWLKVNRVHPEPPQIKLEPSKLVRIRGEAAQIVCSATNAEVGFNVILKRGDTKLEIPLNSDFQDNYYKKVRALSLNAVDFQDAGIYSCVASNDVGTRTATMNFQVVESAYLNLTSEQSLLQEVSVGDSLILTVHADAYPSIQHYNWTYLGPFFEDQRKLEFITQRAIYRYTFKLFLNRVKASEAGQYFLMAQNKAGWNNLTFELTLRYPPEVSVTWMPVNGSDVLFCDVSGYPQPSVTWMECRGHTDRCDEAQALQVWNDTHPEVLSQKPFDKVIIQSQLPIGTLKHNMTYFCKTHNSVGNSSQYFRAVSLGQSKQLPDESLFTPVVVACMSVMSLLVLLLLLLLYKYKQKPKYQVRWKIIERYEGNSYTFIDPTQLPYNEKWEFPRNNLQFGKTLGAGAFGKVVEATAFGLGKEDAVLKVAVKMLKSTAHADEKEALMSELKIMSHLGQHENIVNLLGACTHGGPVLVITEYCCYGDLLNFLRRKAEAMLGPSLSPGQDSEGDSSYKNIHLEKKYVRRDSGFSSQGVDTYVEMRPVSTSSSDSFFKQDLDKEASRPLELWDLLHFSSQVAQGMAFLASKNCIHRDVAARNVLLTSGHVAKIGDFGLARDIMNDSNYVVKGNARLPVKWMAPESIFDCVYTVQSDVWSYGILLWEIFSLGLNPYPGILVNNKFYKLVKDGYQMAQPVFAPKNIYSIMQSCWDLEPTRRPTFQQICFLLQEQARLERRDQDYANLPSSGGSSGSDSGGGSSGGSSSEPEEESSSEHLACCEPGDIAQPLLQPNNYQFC

BMDM [3] = assay: (§1) Induction of conversion of M2-macrophages to the M1 phenotype in CM of MC38 cells treated C57BL/6 mouse BMDM cells assessed as down regulation of Retnla mRNA expression at 30 to 100 nM preincubated with culture medium of MC38 cells for 24 hrs followed by compound addition and measured after 24 hrs by qPCR analysis; type: functional, cell-based; settings: dose 30-100 nM
BMDM [4] = assay: as §1, with “upregulation” for “down regulation”, “Il12” for “Retnla”; type: functional, cell-based; settings: dose 30-100 nM
BMDM [5] = assay: as §1, with “upregulation” for “down regulation”, “Tnf” for “Retnla”; type: functional, cell-based; settings: dose 30-100 nM
BMDM [6] = assay: as §1, with “upregulation” for “down regulation”, “Nos2” for “Retnla”; type: functional, cell-based; settings: dose 30-100 nM
THP-1 [7] = assay: Induction of conversion of M2-macrophages to the M1 phenotype in CM of HCT116 cells treated […]-differentiated human THP-1 cells assessed as down regulation of Il10 mRNA expression at 30 to 100 nM incubated for 24 hrs by qPCR analysis; type: functional, cell-based; settings: dose 30-100 nM
THP-1 [8] = assay: Induction of conversion of M2-macrophages to the M1 phenotype in CM of HCT116 cells treated […]-differentiated human THP-1 cells assessed as down regulation of Arg1 mRNA expression at 30 to 100 nM incubated for 24 hrs by qPCR analysis; type: functional, cell-based; settings: dose 30-100 nM
THP-1 [9] = assay: Induction of conversion of M2-macrophages to the M1 phenotype in CM of HCT116 cells treated […]-differentiated human THP-1 cells assessed as down regulation of Chil3 mRNA expression at 30 to 100 nM incubated for 24 hrs by qPCR analysis; type: functional, cell-based; settings: dose 30-100 nM
THP-1 [10] = assay: Induction of conversion of M2-macrophages to the M1 phenotype in CM of HCT116 cells treated […]-differentiated human THP-1 cells assessed as down regulation of Retnla mRNA expression at 30 to 100 nM incubated for 24 hrs by qPCR analysis; type: functional, cell-based; settings: dose 30-100 nM
THP-1 [11] = assay: Induction of conversion of M2-macrophages to the M1 phenotype in CM of HCT116 cells treated […]-differentiated human THP-1 cells assessed as upregulation of Nos2 mRNA expression at 30 to 100 nM incubated for 24 hrs by qPCR analysis; type: functional, cell-based; settings: dose 30-100 nM
HCT-116 = assay: Antiproliferative activity against human HCT116 cells cultured with culture medium of M2-macrophages assessed as reduction in cell viability at 10 to 100 nM incubated for 24 hrs by CCK-8 assay; type: functional, cell-based; settings: dose 10-100 nM
Mus musculus [12] = assay: Toxicity in C57BL/6 mouse allografted with mouse MC38 cells assessed as weight loss at 5 to 20 mg/kg, po administered every day for 2 weeks; type: organism-based, MC-38; settings: in vivo, 336 h, dose 5-20 mg/kg
Mus musculus [13] = assay: Toxicity in C57BL/6 mouse allografted with mouse MC38 cells assessed as spleen damage at 5 to 20 mg/kg, po administered every day for 2 weeks by histopathological analysis; type: organism-based, MC-38; settings: in vivo, 336 h, dose 5-20 mg/kg
Mus musculus [14] = assay: Toxicity in C57BL/6 mouse allografted with mouse MC38 cells assessed as lung damage at 5 to 20 mg/kg, po administered every day for 2 weeks by histopathological analysis; type: organism-based, MC-38; settings: in vivo, 336 h, dose 5-20 mg/kg
Mus musculus [15] = assay: Toxicity in C57BL/6 mouse allografted with mouse MC38 cells assessed as heart damage at 5 to 20 mg/kg, po administered every day for 2 weeks by histopathological analysis; type: organism-based, MC-38; settings: in vivo, 336 h, dose 5-20 mg/kg
MC-38 [16] = assay: Antitumor activity against mouse MC38 cells allografted in C57BL6 mouse assessed as decrease in Vegf mRNA expression at 10 to 20 mg/kg, po administered daily for 2 weeks by qPCR analysis; type: functional, organism-based; settings: dose 10-20 mg/kg
MC-38 [17] = assay: Antitumor activity against mouse MC38 cells allografted in C57BL6 mouse assessed as increase in Tnf mRNA expression at 10 to 20 mg/kg, po administered daily for 2 weeks by qPCR analysis; type: functional, organism-based; settings: dose 10-20 mg/kg
MC-38 [18] = assay: Antitumor activity against mouse MC38 cells allografted in C57BL6 mouse assessed as increase in Il6 mRNA expression at 10 to 20 mg/kg, po administered daily for 2 weeks by qPCR analysis; type: functional, organism-based; settings: dose 10-20 mg/kg
MC-38 [19] = assay: Antitumor activity against mouse MC38 cells allografted in macrophage depleted C57BL6 mouse at 20 mg/kg, po administered daily for 2 weeks; type: functional, organism-based

Cc1[nH]c(/C=C2\C(=O)Nc3cc(NC(=O)Nc4cc(C(C)(C)C)on4)ccc32)c(C)c1NC(=O)CN1CCN(C)CC1
Activity (MC-38 [1]): Active
Tm [2]: 68 °C
Activity (BMDM [3]): Active
Activity (BMDM [4]): Active
Activity (BMDM [5]): Active
Activity (BMDM [6]): Active
Activity (THP-1 [7]): Active
Activity (THP-1 [8]): Active
Activity (THP-1 [9]): Active
Activity (THP-1 [10]): Active
Activity (THP-1 [11]): Active
Activity (HCT-116): Active
Activity (Mus musculus [12]): Non-Toxic
Activity (Mus musculus [13]): Non-Toxic
Activity (Mus musculus [14]): Non-Toxic
Activity (Mus musculus [15]): Non-Toxic
Activity (MC-38 [16]): Active
Activity (MC-38 [17]): Active
Activity (MC-38 [18]): Active
Activity (MC-38 [19]): inactive
